Assay results reported in US20260242390A1, “TOTAL SYNTHESES OF PORTIMINE A AND ANALOGUES THEREOF AS SMALL MOLECULE MODULATORS OF NMD3” (priority 2023, published 2026).

Tested on: human PBMCs
Assay: Immunoblot of caspase-3 in PBMCs
Format: cell-based
Excerpt: FIG. 3. Initial SAR studies: Assessing activity of PAL functionalized PTMA analogs. […] (A) PA and Ph-PA show less toxic to healthy PBMCs compared to Jurkat cells. […] (B) Immunoblot of caspase-3 in Jurkat and PBMCs with indicated conditions.
• 1) Portimine A and its functional analogs show stereo-selective acute toxicity in cancer cells (FIG. 1). […] (B) Structure of portimine related analogs: phenyl-portimine A (Ph-PA, 36) and epi-portimine A (ePA, 38). Structure of fully functionalized portimine A-based epimeric probe pair: portimine A-diazirine-alkyne (PA-DA, 35-2) and epi-portimine A-diazirine-alkyne (ePA-DA, 35-1). (C) Cell viability analysis of portimine A and analogs. Jurkat cells were treated with increasing concentrations of portimine A and analogs for 24 hours. All presented data as mean of biological replicated experiments (n=3). […] Jurkat cells were treated with portimine A or analogs for 12 hours at 10 nM. […] Structurally related negative control ePA and PB are non-toxic in all cell types in the current concentrate range. PBMCs (25k per well), Jurkat (10k per well). […] Cell cycle analysis in Jurkat cells (FIG. 2). […] Cell lysates were fractionated by sucrose gradient (5-50%) and each fraction were analyzed by western blot. eIF6 levels increase in 60S subunit fraction and decrease in ribosome-free fractions after PA treatment. […]

C=CC1=C[C@@H]2[C@@H]3O[C@]4(CC[C@H](O4)C(C)C[C@@H](O)C3=O)CC(O)C3=NCC[C@@]32CC1 (some centres unmarked) [PA, portimine A]
caspase-3 cleavage in human PBMCs: but not human PBMCs

C#CCCC1(CCNC(=O)c2ccc(C3=C[C@@H]4[C@@H]5O[C@]6(CC[C@H](O6)C(C)C[C@@H](O)C5=O)CC(O)C5=NCC[C@@]54CC3)cc2)N=N1 (some centres unmarked) [PA-DA, portimine A-diazirine-alkyne]
caspase-3 cleavage in human PBMCs: but not human PBMCs
